# Reference: patent publication US20090131515A1, “Combination of antidiabetic drugs” (SIGMA-TAU INDUSTRIE FARMACEUTICHE RIUNITE S.p.A., priority 2003, published 2009)
# Values joined by “and” are separate entries in the source; they are usually repeats but may differ in a detail not shown here. Equal entries are not always repeated. Where two headings read alike, the source gives them in different places.
# Experiments:
# [1] = system: ob/ob mice; experiment: Insulin Suppression Test (IST), blood glucose of ob/ob mice; type: in vivo, mouse; conditions: for Blood glucose levels in the IST: male ob/ob mice, postabsorption, 8 hours after last treatment, mean ± s.e.; for Reduction of hyperglycaemia in the IST: ob/ob mouse
# From the text: (§1) The B6. V-Lep ob/ob, C57BL/KsJ db/db and C57BL/6 mice used in the experiments were supplied by Jackson Lab. (via Charles River).
# (§2) Blood samples were taken from ob/ob and db/db mice in standard environmental conditions, on a normal diet (4 RF21, Mucedola) and from C57BL/6J mice on a high-fat diet (D-12331, Research Diets) for 3 months, in postabsorption conditions (fasting from 8.30 a.m. to 4.30 p.m.) from the caudal vein, with the aid of a Jelco 22G catheter (Johnson and Johnson).
# (§3) The mice were treated orally twice daily (at 8.30 a.m. and 6.30 p.m.) with ST1326 at the dose of 30 mg/kg and with metformin at the dose of 200 mg/kg, alone or in combination.
# (§4) Blood samples were taken on various different days after administration of the products and in different nutritional conditions for the serum glucose determinations, OGTT (Oral Glucose Tolerance Test) and IST (Insulin Suppression Test: Fujita et al., Diabetes 32: 804-810, 1983; Meglasson et al., J. Pharm. Exp. Therap. 266: 1454-1462, 1993; Luo et al., J. Pharm. Exp. Therap. 288: 529-534, 1999).
# In the IST, blood samples were taken 60 min after subcutaneous loading of glucose (3 g/kg), insulin (Humulin R., Lilly 2 U/kg) and somatostatin (0.5 mg/kg).
# [2] = system: db/db mice; experiment: Blood glucose of db/db mice in postabsorption conditions, ST1326 and metformin alone or in combination; type: in vivo, mouse; conditions: male db/db mice, ST1326 30 mg/kg and metformin 200 mg/kg alone or in combination, twice daily for 16 days, 6 hours after last treatment, mean ± s.e.
# From the text: as §1, §2, §3, §4
# [3] = system: db/db mice; experiment: Oral Glucose Tolerance Test (OGTT) in db/db mice; type: in vivo, mouse; conditions: male db/db mice, fasting overnight; for Blood glucose in the OGTT, 0 min: ST1326 30 mg/kg and metformin 200 mg/kg alone or in combination, twice daily for 37 days, 15 hours after last treatment; for Blood glucose in the OGTT, 30 min / Blood glucose in the OGTT, 60 min / Blood glucose in the OGTT, 120 min / Blood glucose in the OGTT, AUC: same treatment for 37 days; for Blood glucose in the OGTT, 30 min: 30 min after glucose loading; for Blood glucose in the OGTT, 60 min: 60 min after glucose loading; for Blood glucose in the OGTT, 120 min: 120 min after glucose loading; for Blood glucose in the OGTT, AUC: AUC 0-120 min
# From the text: as §1, §2, §3, §4
# (§5) In the OGTT, blood samples were taken 0, 30, 60 and 120 minutes after glucose loading (3 g/kg).
# [4] = system: C57BL/6J mice on a high-fat diet; experiment: Blood glucose of C57BL/6J mice on a high-fat diet, postabsorption conditions; type: in vivo, mouse; conditions: male C57BL/6J mice on high-fat diet, ST1326 30 mg/kg and metformin 200 mg/kg alone or in combination, twice daily for 15 days, 6 hours after last treatment, mean ± s.e.
# From the text: (§6) An example is the C57BL/6 mouse, which, as a result of exposure to a high-fat diet, develops not only insulin resistance but also mild hyperglycaemia (Surwit et al., 37: 1163-1167, 1988; Luo et al., Metabolism 47: 663-668,1998).
# as §1, §2, §3, §4
# [5] = system: C57BL/6 mice on a high-fat diet; experiment: Oral Glucose Tolerance Test (OGTT) in C57BL/6 mice on a high-fat diet; type: in vivo, mouse; conditions: male C57BL/6 mice on high-fat diet; for Blood glucose in the OGTT, 0 min: ST1326 30 mg/kg and metformin 200 mg/kg alone or in combination, twice daily for 35 days, postabsorption, 6 hours after last treatment; for Blood glucose in the OGTT, 30 min / Blood glucose in the OGTT, 60 min / Blood glucose in the OGTT, 120 min / Blood glucose in the OGTT, AUC: same treatment for 35 days; for Blood glucose in the OGTT, 30 min: 30 min after glucose loading; for Blood glucose in the OGTT, 60 min: 60 min after glucose loading; for Blood glucose in the OGTT, 120 min: 120 min after glucose loading; for Blood glucose in the OGTT, AUC: AUC 0-120 min
# From the text: as §6, §1, §2, §3, §4, §5
# [6] = system: KKAy mouse; conditions: cited from earlier work
# [7] = system: type 2 diabetes patients; conditions: cited from earlier work
# [8] = system: db/db mice; experiment: Serum glucose of db/db mice treated with ST1326 for 45 days, postabsorption conditions; type: in vivo, mouse; conditions: for Lowering serum glucose: db/db mice; for Serum glucose levels: male db/db mice, postabsorption, 8 hours after last treatment, mean ± s.e.
# From the text: as §1, §2
# [9] = system: ob/ob mice; experiment: Blood glucose of ob/ob mice in feeding conditions; type: in vivo, mouse; conditions: male ob/ob mice, ST1326 30 mg/kg and metformin 200 mg/kg alone or in combination, twice daily for 11 days, 15 hours after last treatment, mean ± s.e.
# From the text: as §1, §2, §3, §4
# [10] = ST1326 30 mg/kg and metformin 200 mg/kg alone or in combination, twice daily for 18 days
SMILES,"Blood glucose levels in the IST [1, 10] [mg/dL]",Blood glucose levels [2] [mg/dL],"Blood glucose in the OGTT, 0 min [3] [mg/dL]","Blood glucose in the OGTT, 30 min [3] [mg/dL]","Blood glucose in the OGTT, 60 min [3] [mg/dL]","Blood glucose in the OGTT, 120 min [3] [mg/dL]","Blood glucose in the OGTT, AUC [3] [mg·min/dL]",Blood glucose levels [4] [mg/dL],"Blood glucose in the OGTT, 0 min [5] [mg/dL]","Blood glucose in the OGTT, 30 min [5] [mg/dL]","Blood glucose in the OGTT, 60 min [5] [mg/dL]","Blood glucose in the OGTT, 120 min [5] [mg/dL]","Blood glucose in the OGTT, AUC [5] [mg·min/dL]",further results
"CN(C)C(=N)N=C(N)N [METFORMIN, metformin]",433.7 ± 34.8,337.8 ± 33.1,195.5 ± 21.5,530.9 ± 34.6,456.8 ± 52.4,344.4 ± 40.9,49700 ± 4720,146.1 ± 9.2,141.1 ± 11.4,241.2 ± 18.9,212.3 ± 5.0,186.2 ± 15.1,24500 ± 1180,"Blood glucose levels in the IST ([1]; oral metformin 300 mg/kg twice daily for 8 days): 412.1 ± 3.5 □ mg/dl; Reduction of hyperglycaemia in the IST ([1]; 200 mg/kg/day): ineffective; Reduction of hyperglycaemia in the IST ([1]; 600 mg/kg/day): 22%; Reduction of hyperglycaemia ([6]; 200 mg/kg/day): ineffective; Reduction of hyperglycaemia ([6]; 900 mg/kg/day): 50%; Reduction of hyperglycaemia ([7]; in combination with sulphonylureas): 25%; Reduction of hyperglycaemia ([7]; monotherapy after the failure of diet and physical exercise): 20% and 13-37%; Incidence of diarrhoea, nausea and gastrointestinal disorders ([7]; patients on metformin): approximately 20%"
"CCCCCCCCCCCCCCNC(=O)N[C@H](CC(=O)[O-])C[N+](C)(C)C [ST1326, R-4-trimethylammonio-3-(tetradecylcarbamoyl)-amino-butyrate]",524.2 ± 56.2,370.7 ± 30.0,175.3 ± 25.6,557.2 ± 30.6,498.3 ± 23.5,284.6 ± 20.8,50300 ± 2430,167.3 ± 4.7,156.0 ± 7.8,236.3 ± 11.2,207.0 ± 9.9,212.9 ± 8.6,25100 ± 652,Lowering serum glucose ([8]; dose of 40 mg/kg/day): inactive; Lowering serum glucose ([8]; dose of 100 mg/kg/day): effective; Serum glucose levels ([8]; oral 20 mg/kg twice daily for 45 days): 562 ± 40 mg/dL; Serum glucose levels ([8]; oral 50 mg/kg twice daily for 45 days): 350 ± 48 Δ mg/dl; Blood glucose levels [9]: 394.8 ± 25.7 mg/dL
